Experiments:
[1] = Solubility in soybean oil (crystal precipitation on standing); assay type: physicochemical; settings: 200 mg dissolved in 1 mL soybean oil at 70°C, then standing at 25°C for 2 days and nights
Experimental: In order to examine the solubility of the above-obtained substance in soybean oil, 200 mg of the substance was dissolved in 1 m£ of soybean oil while heating at 70°C and, thereafter, the resulting solution was allowed to stand at 25°C for 2 days and nights.

[2] = tested on: carrageenan- induced edema in rats; assay: Anti-inflammatory action: carrageenan-induced leg edema in rats; assay type: in vivo, Wister male rats; settings: 0.3 mg/kg by the tail venous route 1 hour after carrageenan, fat emulsions, leg volume vs physiological saline groups 3 hours after carrageenan
Experimental: Wister male rats were divided into groups of 6 rats each. 0.1 mℓ of a 1% solution of carrageenan in physiological saline was injected subcutaneously in the heel of a right hind leg for each rat to develop a leg edema. One hour after the injection of carrageenan, a drug to be tested was injected in a dosage of 0.3 mg/kg by the tail venous route. Thereafter the leg volume was measured with suitable time intervals.
The fat emulsions prepared in Preparation Examples 1 to 4 were tested. As a control drug, physiological saline was used.
The degree of the anti-inflammatory action was indicated as an inhibitory ratio in connection with the leg volume of physiological saline-administered groups 3 hours after the injection of carrageenan.

Compound | solubility in soybean oil: precipitation of crystals [1] | Anti-inflammatory Action Edema Inhibition Ratio (%) [2] [%]
CCCCOC(=O)COC(=O)Cc1c(C)n(C(=O)c2ccc(F)cc2)c2ccc(OC)cc12 [Example 4, butoxycarbonylmethyl 1-(p-fluorobenzoyl)-5-methoxy-2-methylindole-3-acetate] | Precipitation of crystals was not observed at all | 68
CCCCCCOC(=O)COC(=O)Cc1c(C)n(C(=O)c2ccc(Cl)cc2)c2ccc(OC)cc12 [Example 2, Hexyloxycarbonylmethyl indomethacin ester] | – | 62
COc1ccc2c(c1)c(CC(=O)OCOC(=O)C(C)(C)C)c(C)n2C(=O)c1ccc(Cl)cc1 [Example 3, Pivaloyloxymethyl indomethacin ester] | – | 58
CCCCOC(=O)COC(=O)Cc1c(C)n(C(=O)c2ccc(Cl)cc2)c2ccc(OC)cc12 [Example 1, butoxycarbonylmethyl indomethacin ester] | – | 60
